The text below walks through data of paper PMC11268423 (Science Advances, 2024).

Assay [1] concerns SARS-CoV-2 M^pro T21I+S144A+T304I mutant virus. The format is cell-based.
A further assay relates to SARS-CoV-2 M^pro T304I. The following applies: cited from earlier work.
The subject of the next assay is SARS-CoV-2 M^pro T21I. The note with it: cited from earlier work.
In assay [2] the test system is SARS-CoV-2 M^pro T304I mutant virus. The format is cell-based.
The next assay deals with SARS-CoV-2 M^pro L50F. The note with it: cited from earlier work.
The test system of another assay is SARS-CoV-2 M^pro E166V. The note with it: cited from earlier work.

Where “and” joins values, the source holds several entries; their conditions need not be identical. Equal values may be shown once.

In the case of `CC(C)(C)[C@H](NC(=O)C(F)(F)F)C(=O)N1C[C@H]2[C@@H]([C@H]1C(=O)N[C@H](C#N)C[C@@H]1CCNC1=O)C2(C)C` [Nirmatrelvir], the “Fold over WA-1” value was > 20 fold and 27.8 fold in assay [1]; 3.4 fold in assay [2]. Besides, the “fold resistance to nirmatrelvir” value in the assay with SARS-CoV-2 M^pro T304I was 5.5 fold; with SARS-CoV-2 M^pro T21I, 4.6 fold; in the assay with SARS-CoV-2 M^pro L50F it was 4.2 fold. Also, the “fold resistance to nirmatrelvir in vitro” value in the assay with SARS-CoV-2 M^pro E166V was “up to 288 fold”.
